In ChEMBL document CHEMBL3779885, “Inhibition of human DNA topoisomerase IIα by two novel ellipticine derivatives” (Bioorg Med Chem Lett, 2016):
Activity calls are given as the source filed them. The calls are words filed in the database; no cut-off is given here.

Columns and labels:
Calf thymus DNA = experiment: Inhibition of calf thymus DNA topoisomerase 2 assessed as DNA cleavage after 30 mins by agarose gel electrophoresis; type: nucleic-acid assay, Bos taurus
[1] = molecular target: T1, DNA topoisomerase 2-alpha (Homo sapiens, UniProt P11388); experiment: Inhibition of recombinant human DNA topoisomerase 2alpha expressed in topoisomerase1 deficient Saccharomyces cerevisiae JEL1 using kinetoplast DNA as substrate assessed as decantenated kDNA minicircles at 200 to 1000 uM after 15 mins by agarose gel electrophoresis
T1 sequence (P11388 whole entry): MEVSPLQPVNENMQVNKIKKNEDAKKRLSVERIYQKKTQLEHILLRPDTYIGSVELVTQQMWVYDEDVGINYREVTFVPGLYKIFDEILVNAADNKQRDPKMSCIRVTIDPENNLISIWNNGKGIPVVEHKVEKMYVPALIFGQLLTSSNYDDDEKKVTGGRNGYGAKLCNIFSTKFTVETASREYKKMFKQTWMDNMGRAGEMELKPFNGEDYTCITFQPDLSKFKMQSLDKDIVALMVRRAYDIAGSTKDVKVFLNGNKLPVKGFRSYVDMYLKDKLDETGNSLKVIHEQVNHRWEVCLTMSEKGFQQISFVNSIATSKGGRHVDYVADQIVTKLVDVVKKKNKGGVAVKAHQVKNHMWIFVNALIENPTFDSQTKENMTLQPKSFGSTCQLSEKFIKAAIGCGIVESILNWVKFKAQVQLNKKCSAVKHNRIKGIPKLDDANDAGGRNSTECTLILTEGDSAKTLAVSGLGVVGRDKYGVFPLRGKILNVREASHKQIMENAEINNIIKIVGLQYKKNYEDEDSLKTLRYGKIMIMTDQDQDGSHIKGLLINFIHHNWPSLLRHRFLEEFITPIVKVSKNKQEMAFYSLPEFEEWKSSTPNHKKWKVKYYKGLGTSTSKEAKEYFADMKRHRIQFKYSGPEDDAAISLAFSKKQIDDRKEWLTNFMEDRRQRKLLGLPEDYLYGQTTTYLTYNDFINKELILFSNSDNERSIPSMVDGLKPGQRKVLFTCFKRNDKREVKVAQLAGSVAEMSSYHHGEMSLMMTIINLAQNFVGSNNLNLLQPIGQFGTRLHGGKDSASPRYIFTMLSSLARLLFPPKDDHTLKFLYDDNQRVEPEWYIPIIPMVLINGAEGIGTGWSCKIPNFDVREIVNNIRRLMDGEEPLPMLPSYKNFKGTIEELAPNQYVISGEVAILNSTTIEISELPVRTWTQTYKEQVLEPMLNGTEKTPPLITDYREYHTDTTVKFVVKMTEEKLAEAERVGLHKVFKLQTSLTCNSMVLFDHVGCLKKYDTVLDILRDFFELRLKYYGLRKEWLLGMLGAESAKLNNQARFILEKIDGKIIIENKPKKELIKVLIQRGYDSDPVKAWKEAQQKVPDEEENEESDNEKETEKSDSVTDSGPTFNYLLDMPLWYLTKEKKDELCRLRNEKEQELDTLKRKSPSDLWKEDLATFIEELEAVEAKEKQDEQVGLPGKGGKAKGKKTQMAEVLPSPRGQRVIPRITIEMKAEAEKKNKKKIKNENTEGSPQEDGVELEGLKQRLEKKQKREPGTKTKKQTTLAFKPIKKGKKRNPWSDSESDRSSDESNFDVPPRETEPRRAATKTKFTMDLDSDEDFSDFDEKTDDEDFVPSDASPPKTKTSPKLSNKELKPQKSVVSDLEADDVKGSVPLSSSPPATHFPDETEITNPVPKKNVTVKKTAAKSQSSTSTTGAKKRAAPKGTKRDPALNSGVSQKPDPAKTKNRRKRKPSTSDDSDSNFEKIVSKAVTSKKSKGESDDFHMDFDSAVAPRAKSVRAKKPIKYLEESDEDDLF

[2] = molecular target: T1, DNA topoisomerase 2-alpha; experiment: Activity at recombinant human DNA topoisomerase 2alpha expressed in topoisomerase1 deficient Saccharomyces cerevisiae JEL1 assessed as topoisomerase 2alpha-mediated supercoiled pBR322 DNA cleavage up to 200 uM after 15 mins by agarose gel electrophoresis
[3] = molecular target: T1, DNA topoisomerase 2-alpha; experiment: Inhibition of recombinant human DNA topoisomerase 2alpha expressed in topoisomerase1 deficient Saccharomyces cerevisiae JEL1 assessed as inhibition of DNA scission activity after 30 mins by agarose gel electrophoresis
[4] = molecular target: T1, DNA topoisomerase 2-alpha; experiment: Inhibition of recombinant human DNA topoisomerase 2alpha binding to supercoiled pBR322 DNA expressed in topoisomerase1 deficient Saccharomyces cerevisiae JEL1 at 25 uM after 6 mins by electrophoretic mobility shift assay
[5] = molecular target: T1, DNA topoisomerase 2-alpha; experiment: Induction of recombinant human DNA topoisomerase 2alpha binding to supercoiled pBR322 DNA expressed in topoisomerase1 deficient Saccharomyces cerevisiae JEL1 at 25 uM after 6 mins by electrophoretic mobility shift assay
[6] = molecular target: T1, DNA topoisomerase 2-alpha; experiment: Inhibition of recombinant human DNA topoisomerase 2alpha expressed in topoisomerase1 deficient Saccharomyces cerevisiae JEL1 assessed as inhibition of DNA scission activity at 25 uM after 30 mins by agarose gel electrophoresis
Escherichia coli = experiment: Induction of DNA intercalation in relaxed pBR322 DNA assessed as conversion of relaxed DNA to negatively supercoiled DNA by measuring topoisomerase 1-mediated DNA relaxation measured up to 25 uM after 15 mins by agarose gel electrophoresis

Compound | IC50 (Calf thymus DNA) | inhibition [1] | Activity [2] | IC50 [3] | inhibition [4] | Activity [5] | inhibition [6] | Activity (Escherichia coli)
Cc1c2ccncc2c(C)c2c1[nH]c1ccccc12 [ELLIPTECINE] | > 200 µM |  |  |  |  |  |  | 
Cc1c2c[n+](C)ccc2cc2c1c1ccccc1n2C |  | Active | inactive | 5 µM | inactive | 50% | 80% | Active
Cc1c2cnccc2cc2c1c1ccccc1n2C |  | Active | inactive | 40 µM | inactive |  | 40% | Active
